In US10537571B2, “Pyrimidine FGFR4 inhibitors” (priority 2013, dated 2020):
Like-named read-outs stand apart in the source and are kept apart here.

System: HEP3B tumor xenografts
Assay type: in vivo
Conditions: for comparative tumor growth efficacy: Hep3B

Row | SMILES | tolerability (health of animals) (30 mg/kg orally twice daily) | tolerability (health of animals) (60 mg/kg orally twice daily, dosing terminated on Day 11) | comparative tumor growth efficacy (60 mg/kg orally twice daily) | comparative tumor growth efficacy (25, 37.5 or 50 mg/kg i.p. twice daily)
1 | CCN1CCN(c2ccc(Nc3cc(N(C)C(=O)Nc4c(Cl)c(OC)cc(OC)c4Cl)ncn3)cc2)CC1 [BGJ398] | did not exhibit poor health | poor health of animals | efficacy comparable to compound 108 | –
2 | C=CC(=O)Nc1cc(N2CCN(CC)CC2)ccc1Nc1cc(N(C)C(=O)Nc2c(Cl)c(OC)cc(OC)c2Cl)ncn1 [Compound 108, N-(2-(6-(3-(2,6-Dichloro-3,5-dimethoxyphenyl)-1-methylureido)pyrimidin-4-ylamino)-5-(4-ethylpiperazin-1-yl)-phenyl)acrylamide] | – | – | – | more efficacious than BGJ398
